In patent US6153768A, “Benzopyran derivatives” (C & C Research Laboratories, priority 1996, dated 2000):

Columns and labels:
estrogen receptor = conditions: literature, in words; cited from earlier work
MCF-7 cells = assay: Cell growth inhibiting activity (MTT, 0.1 nM estradiol, 7 days); type: cell-based; conditions: Homo sapiens, MCF7, 168 h, MCF-7, 0.1 nM estradiol
Procedure: In this experiment, the cell growth inhibiting activity was determined by using the compounds of Examples 6, 7, 12 and 46 as the test compound and the known anti-estrogenic compound ZM189154 having the following structure (see, EP0124369 B1) as the control compound, according to the method described hereinafter. [drawing 72]
One day before drug administration, incubated MCF-7 cells were plated in 96-well plate in the concentration of 5×10^3 cells per well. After the 96-well plate was incubated for one day, 0.1 nM of estradiol and the test compound in the given concentration were added to each well. The plate was incubated for 7 days at 37° C. and then MTT solution (Sigma) was added to each well in the amount of 15 μl and allowed to react for 2 hours at 37° C. After the reaction is completed, the solubilizing/stopping solution (constitution: SDS, acetic acid, N,N-dimethylformamide) was added to each well in the amount of 100 μl. Then, the absorption for each well at 570 nm was measured by means of a plate reader. IC50 value for inhibiting cell growth of 50% was calculated from the results as measured and described in the following Table 1.

[1] = system: increase of uterine weight by estradiol in ovariectomized mice; assay: Anti-estrogenic activity, inhibition of uterine weight increase, subcutaneous administration; type: in vivo, mice (ICR); conditions: s.c.; for Inhibition (%) of increase of uterine weight: 30 μg/mouse, 3 days; for inhibition of increase of uterine weight compared to ZM189154: in words
Procedure: Anti-estrogenic activity of the test compound by subcutaneous administration was determined according to the method described hereinafter. In this experiment, the compounds of Examples 6, 7, 12 and 46 were used as the test compound and the known anti-estrogenic compound ZM189154 was used as the control compound as in Experiment 1.
In this experiment, the test compound or the control compound was dissolved in peanut oil (Sigma) and injected subcutaneously for 3 days, once a day. After 24 hours from the last injection, the test animal was sacrificed and uterus was removed and weighed.

[2] = system: increase of uterine weight by estradiol in ovariectomized mice; assay: Anti-estrogenic activity, inhibition of uterine weight increase, oral administration; type: in vivo, mice (ICR); conditions: 10 mg/kg, p.o., 3 days
Procedure: Oral anti-estrogenic activity of the test compound was determined according to the method described hereinafter. In this experiment, the compound of Example 7 was used as the test compound and the known anti-estrogenic compound ZM189154 was used as the control compound as in Experiment 2.
In this experiment, the test compound or the control compound was suspended in 5% arabic gum solution and orally administered for 3 days, once a day. After 24 hours from the last administration, the test animal was sacrificed and uterus was removed and weighed.

mouse femur = assay: Effect on bone mineral density of mouse femur; type: in vivo, BALB/c nude mouse (female); conditions: for whole BMD / proximal BMD / distal BMD: mean ± SE, s.c. once a week, 6 weeks; for whole BMD: control 35.63 ± 0.97; for proximal BMD: control 35.95 ± 1.50; for distal BMD: control 37.80 ± 1.75
Procedure: The effect of the compound of the present invention on bone mineral density of mouse femur was determined according to the method described hereinafter. In this experiment, the compounds of Example 7 was used as the test compound and the known anti-estrogenic compound ZM189154 was used as the control compound as in Experiment 2.
MCF-7 cells (ATCC) as human breast cancer cell were transplanted subcutaneously into BALB/c nude mouse (female, 6 weeks) and then estradiol was percutaneously injected twice a week in an amount of 0.01 mg/mouse, for 3 weeks. Thereafter, estradiol was administered once a week in the same amount and the test compound or the control compound dissolved in 10% ethanol-90% peanut oil was administered. The control group received only vehicle. The test or control compound was administered subcutaneously in an amount of […], once a week. After the administration of the test compound for 6 weeks, left femur was excised and soft tissue was removed therefrom. Then the bone mineral density (BMD) was measured in a SPA mode by means of dual energy X-ray absorptiometry DCS-600 (Aloka). For interpretation, femur was divided into ten in the direction of long axis and the mean […] of 3, 4 and 3 fragments from proximal position were calculated. Each of the fragments was represented as proximal, middle or distal, respectively.

**Q.** For C[C@]12CC[C@@H]3c4ccc(O)cc4C[C@@H](CCCCCCCCC[S+]([O-])CCCC(F)(F)C(F)(F)F)[C@H]3[C@@H]1CC[C@@H]2O (stereo partly shown), which “estrogenic activity (agonistic effect)” value (estrogen receptor) is on record?
**A.** Its value is “without agonistic effect”.

**Q.** Which IC50 (MCF-7 cells) does the source give for C[C@@]1(c2ccc(O)cc2)COc2cc(O)ccc2[C@@H]1CCCCCCCCCSCCCC(F)(F)C(F)(F)F (racemic) [Example 6, (3RS,4RS)-7-hydroxy-3-(4-hydroxyphenyl)-3-methyl-4-[9-(4,4,5,5,5-pentafluoropentylthio)nonyl]-2,3-dihydro-4H-benzopyran] here?
**A.** The IC50 was 277 nM.

**Q.** And the “Inhibition (%) of increase of uterine weight” value [1]?
**A.** The value was 83.1%.

**Q.** And the “inhibition of increase of uterine weight compared to ZM189154” value (“inhibition of increase of uterine weight” for short) [1]?
**A.** The value was “rather superior to that of ZM189154”.

**Q.** Which “Inhibition (%) of increase of uterine weight” value [2] does the source give for C[C@@]1(c2ccc(O)cc2)COc2cc(O)ccc2[C@@H]1CCCCCCCCC[S+]([O-])CCCC(F)(F)C(F)(F)F (mixture of isomers) [Example 7, (3RS,4RS)-7-hydroxy-3-(4-hydroxyphenyl)-3-methyl-4-[9-(4,4,5,5,5-pentafluoropentylsulfinyl)nonyl]-2,3-dihydro-4H-benzopyran] here?
**A.** Its value is 68.1%.

**Q.** And the IC50 (MCF-7 cells)?
**A.** The IC50 was 54.8 nM.

**Q.** What about the “Inhibition (%) of increase of uterine weight” value [1] of the same molecule?
**A.** The value was 87.0%.

**Q.** What about the “inhibition of increase of uterine weight” value [1] of the same molecule?
**A.** Its value is “rather superior to that of ZM189154”.

**Q.** What about the “whole BMD” value (mouse femur) of the same molecule?
**A.** Its value is 37.23 ± 1.41 mg/cm^2.

**Q.** And the “proximal BMD” value (mouse femur)?
**A.** Its value is 35.05 ± 2.05 mg/cm^2.

**Q.** And the “distal BMD” value (mouse femur)?
**A.** The value was 36.29 ± 1.46 mg/cm^2.

**Q.** For C[C@@]1(c2ccc(O)cc2)COc2cc(O)ccc2[C@@H]1CCCCCCCCSCCCC(F)(F)C(F)(F)F (racemic) [Example 12, (3RS,4RS)-7-hydroxy-3-(4-hydroxyphenyl)-3-methyl-4-[8-(4,4,5,5,5-pentafluoropentylthio)octyl]-2,3-dihydro-4H-benzopyran], which IC50 (MCF-7 cells) is on record?
**A.** Its IC50 is 524 nM.

**Q.** What about the “Inhibition (%) of increase of uterine weight” value [1] of the same molecule?
**A.** Its value is 74.8%.

**Q.** What about the “inhibition of increase of uterine weight” value [1] of the same molecule?
**A.** Its value is “rather superior to that of ZM189154”.

**Q.** With C[C@@]1(c2ccc(O)cc2)COc2cc(O)ccc2[C@@H]1CCCCCCCCC[S+]([O-])CCN1CCCCC1 (mixture of isomers) [Example 46, (3RS,4RS)-7-hydroxy-3-(4-hydroxyphenyl)-3-methyl-4-[9-((2-piperidinoethyl)sulfinyl)nonyl]-2,3-dihydro-4H-benzopyran] as the molecule, how does the IC50 (MCF-7 cells) read?
**A.** The IC50 was 33 nM.

**Q.** And the “Inhibition (%) of increase of uterine weight” value [1]?
**A.** Its value is 16.7%.

**Q.** What about the “inhibition of increase of uterine weight” value [1] of the same molecule?
**A.** Its value is “rather superior to that of ZM189154”.

**Q.** With CCCCN(C)C(=O)CCCCCCCCCC[C@@H]1Cc2cc(O)ccc2[C@H]2CC[C@]3(C)[C@@H](O)CC[C@H]3[C@H]12 [7 α--(CH2)10 CONMeBu derivative] as the molecule, how does the anti-estrogenic activity (estrogen receptor) read?
**A.** Its anti-estrogenic activity is “exhibit anti-estrogenic activity”.

**Q.** For CC/C(=C(\c1ccccc1)c1ccc(OCCN(C)C)cc1)c1ccccc1 [Tamoxifen], which “estrogenic activity (agonistic effect)” value (estrogen receptor) is on record?
**A.** Its value is “exhibits estrogenic activity in some organs”.

**Q.** Which “Inhibition (%) of increase of uterine weight” value [2] does the source give for CC1(c2ccc(O)cc2)CCc2cc(O)ccc2C1CCCCCCCCC[S+]([O-])CCCC(F)(F)C(F)(F)F (stereo not shown) [ZM189154] here?
**A.** Its value is 41.7%.

**Q.** And the IC50 (MCF-7 cells)?
**A.** The IC50 was 77 nM.

**Q.** And the “Inhibition (%) of increase of uterine weight” value [1]?
**A.** The value was 73.8%.

**Q.** And the “whole BMD” value (mouse femur)?
**A.** The value was 34.57 ± 1.40 mg/cm^2.

**Q.** And the “proximal BMD” value (mouse femur)?
**A.** Its value is 34.19 ± 2.19 mg/cm^2.

**Q.** And the “distal BMD” value (mouse femur)?
**A.** The value was 32.80 ± 1.30 mg/cm^2.

**Q.** And the “decrease of BMD at distal femur” value (mouse femur; vs control)?
**A.** The value was 13.3%.

**Q.** And the “decrease of BMD at proximal femur” value (mouse femur; vs control)?
**A.** Its value is 4.9%.

**Q.** What about the “decrease of BMD at whole femur” value (mouse femur; vs control) of the same molecule?
**A.** Its value is 3.0%.
